Publication PMC12677699, “Utilizing Proteolytic‐Resistant Nano‐Short Peptide Based on Naphthyl Tail‐Anchored to Combat Bacterial Infections” (Advanced Science, 2025)
In brackets after ≈: the same amount, converted by molar mass. Non-standard residues stand in square brackets, D forms with d. Residues, ends and D or L forms follow the SMILES beside them. ξ: configuration not given here. ξAhp(2) = CCCCCC(N)C(=O)O

Legend:
S. aureus ATCC 29213 [1] = experiment: Respiratory chain dehydrogenase activity, RT reduction; assay type: cell-based, Staphylococcus aureus; settings: 16 × 10^−6 M, S. aureus ATCC 29213, 1.5 h, 37 °C; n = 3
Description: The inhibitory effects of nano‐short peptides on RCD activity in bacteria were evaluated using an RT reduction assay.^[ [58] ^] Logarithmic growth stage E. coli ATCC 25922 and S. aureus ATCC 29213 bacterial solutions were diluted to OD600 = 0.4 in MHB liquid medium. A mixed solution was prepared by combining RT (1 mg mL^−1), glucose (100 × 10^−3 M), and Tris‐HCl buffer (50 × 10^−3 M, pH 8.6) in equal volumes (1:1:1). In 96‐well microplates, serial dilutions of nano‐short peptides were prepared using the mixed solution, followed by addition of an equal volume of bacterial suspension. Following incubation at 37 °C for 1.5 h, the absorbance at 492 nm was measured using a microplate reader, with untreated bacterial suspensions serving as controls.

[2] = LPS binding, BODIPY-TR-cadaverine displacement; settings: BC displacement, polymyxin B 10 µg mL^−1 = 100%, n = 3
Description: The binding ability of nano‐short peptides to LPS and LTA was evaluated using a BODIPY‐TR‐cadaverine (BC) displacement assay.^[ [59] ^] Test solutions containing LPS or LTA (50 µg mL^−1) were pre‐incubated with BC dye (5 µg mL^−1) for 4 h in the dark. Peptide solutions at varying concentrations were then mixed with the LPS or LTA, polymyxin B (final concentration 10 µg mL^−1) was used as a positive control, and LPS or LTA mixed with dye solution was used as a negative control. The fluorescence intensity (excitation λ = 580 nm, emission λ = 620 nm) was measured. %ΔF (au) = [(F treated – F negative control)/(F positive control – F negative control)] × 100%.

S. aureus ATCC 29213 [3] = experiment: Intracellular ATP determination; assay type: cell-based, Staphylococcus aureus; settings: 16 × 10^−6 M, S. aureus ATCC 29213, 1 h, 37 °C; n = 3
Description: The intracellular ATP levels of E. coli ATCC 25922 and S. aureus ATCC 29213 after nano‐short peptides treatment were detected using an Enhanced ATP Assay Kit.^[ [59] ^] Logarithmic growth stage E. coli ATCC 25922 and S. aureus ATCC 29213 bacterial solutions were diluted to OD600 = 0.4 in MHB liquid medium. Then, the bacterial dilutions were co‐incubated with different concentrations of nano‐short peptides at 37 °C for 1 h. After incubation, the bacterial dilutions were centrifuged (12 000 rpm, 5 min, 4 °C) to pellet the cells. The resulting bacterial pellets were processed according to the steps in the kit. Finally, the chemiluminescence was detected by a microplate reader.

E. coli ATCC 25922 [4] = experiment: Serum tolerance assay (MIC after incubation with serum); assay type: cell-based, Escherichia coli; settings: 4 h of incubation with various serum concentrations
Description: The serum stability of nano‐short peptides was evaluated by incubating peptide solutions with fetal bovine serum (FBS), which was at concentrations of 25%, 50%, and 100% (diluted in 0.2% BSA solution). Following 4 h of incubation, the antimicrobial activity was determined by measuring the MIC against the test strains.

E. faecalis 29212 = assay type: cell-based, Enterococcus faecalis
Description: (§1) The MIC values of the nano‐short peptides were determined according to standard protocols.^[ [63] ^] Bacterial strains were revived from cryopreservation and cultured in Mueller–Hinton broth (MHB) to logarithmic growth phase, then diluted to a final density of 0.5–1 × 10⁶ CFU mL^−1. Serial dilutions of the nano‐short peptides were prepared in 0.2% bovine serum albumin (BSA) using a 96‐well plate format. Equal volumes of peptide solutions and bacterial suspensions were combined and incubated at 37 °C for 20–22 h. Bacterial growth was assessed by measuring absorbance at 492 nm, with MHB alone (negative control) and untreated bacterial suspension (positive control) included for reference.

S. epidermidis 12228 = assay type: cell-based, Staphylococcus epidermidis
Description: as §1

E. coli 25922 = assay type: cell-based, Escherichia coli
Description: as §1

E. coli 078 = assay type: cell-based, Escherichia coli
Description: as §1

E. coli UB1005 = assay type: cell-based, Escherichia coli
Description: as §1

S. aureus ATCC 29213 [5] = experiment: ROS generation, DCFH-DA; assay type: cell-based, Staphylococcus aureus; settings: 16 × 10^−6 M, S. aureus ATCC 29213, DCFH-DA, 1 h; n = 3
Description: ROS accumulation levels were assessed by the fluorescent probe DCFH‐DA.^[ [63] ^] Logarithmic growth stage E. coli ATCC 25922 and S. aureus ATCC 29213 bacterial solutions were diluted to OD600 = 0.4 in PBS (pH = 7.4, 10 × 10^−3 M), followed by incubation with DCFH‐DA final concentration of 10 × 10^−6 M) for 30 min at 37 °C. Subsequently, the bacterial suspensions were then mixed with different concentrations of nano‐short peptides dilutions in equal volumes in a 96‐well plate and continued to incubate for 1 h (37 °C). Finally, the fluorescence intensity was measured using a microplate reader (excitation λ = 488 nm, emission λ = 525 nm).

S. pullorum C7913 = assay type: cell-based
Description: as §1

E. coli ATCC 25922 [6] = experiment: Outer membrane permeability, NPN; assay type: cell-based, Escherichia coli; settings: n = 3
Description: The NPN fluorescent probe was used to assess the permeability of the outer membrane.^[ [29] ^] A logarithmic phase culture of E. coli ATCC 25922 bacterial solution was diluted to OD600 = 0.2 in a 5 × 10^−3 M HEPES buffer (pH = 7.4 with 5 × 10^−3 M glucose). Following the addition of NPN (final concentration: 10 × 10^−6 M), the mixture was incubated for 30 min in the dark. Subsequently, the bacterial suspension was mixed with an equal volume of nano‐short peptides solution at different concentrations. Polymyxin B (10 µg mL^−1) was used as a positive control, while an untreated bacterial dilution served as the negative control. Fluorescence intensity was measured (excitation λ = 350 nm, emission λ = 420 nm) using a microplate reader. The percentage of outer membrane permeability was calculated as: Permeability% = [(F treated – F negative control)/(F positive control – F negative control)] × 100%.

S. typhimurium 14028 = assay type: cell-based, Salmonella typhimurium
Description: as §1

S. typhimurium 7731 = assay type: cell-based, Salmonella typhimurium
Description: as §1

Row | Compound | RCD activity reduced to (S. aureus ATCC 29213 [1]) [%] | LPS binding, % of polymyxin B's binding efficiency ([2]; 8 × 10^−6 M) [%] | LPS binding, % of polymyxin B's binding efficiency ([2]; 16 × 10^−6 M) [%] | ATP levels decreased to (S. aureus ATCC 29213 [3]) [%] | antimicrobial capacity after serum incubation (E. coli ATCC 25922 [4]) | MIC, E. faecalis 29212 (E. faecalis 29212) [µM] | MIC, S. epidermidis 12228 (S. epidermidis 12228) [µM] | MIC, E. coli 25922 (E. coli 25922) [µM] | MIC, E. coli 078 (E. coli 078) [µM] | MIC, E. coli UB1005 (E. coli UB1005) [µM] | increase of ROS content vs untreated bacteria (S. aureus ATCC 29213 [5]) [fold] | MIC, S. pullorum C7913 (S. pullorum C7913) [µM] | outer membrane disruption compared to polymyxin B (E. coli ATCC 25922 [6]; 8 × 10^−6 M) [%] | outer membrane disruption compared to polymyxin B (E. coli ATCC 25922 [6]; 16 × 10^−6 M) [%] | MIC, S. typhimurium 14028 (S. typhimurium 14028) [µM] | MIC, S. typhimurium 7731 (S. typhimurium 7731) [µM]
1 | CCCCCC(N)C(=O)NC(CCCCC)C(=O)NC(CCCCC)C(=O)NC(CCCCC)C(=O)N[C@H](CCCNC(=N)N)C(=O)N[C@@H](CCCNC(=N)N)C(=O)N[C@@H](CCCNC(=N)N)C(=O)N1CCC[C@H]1C(=O)O (some centres unmarked) [Peptide B4] (H-[ξAhp(2)][ξAhp(2)][ξAhp(2)][ξAhp(2)][dR]RRP-OH; N-terminus assumed) | 34.12 | 40.51 | 54.24 | 71.18 | retained their original antimicrobial capacity | 32 (≈ 35 µg/mL) | 32 (≈ 35 µg/mL) | 16 (≈ 17.5 µg/mL) | 16 (≈ 17.5 µg/mL) | 8 (≈ 8.74 µg/mL) | 1.38 | 16 (≈ 17.5 µg/mL) | 37.37 | 57.94 | 128 (≈ 140 µg/mL) | 32 (≈ 35 µg/mL)
2 | N=C(N)NCCC[C@H](NC(=O)[C@@H](CCCNC(=N)N)NC(=O)[C@H](Cc1cccc2ccccc12)NC(=O)[C@H](Cc1cccc2ccccc12)NC(=O)[C@H](Cc1cccc2ccccc12)NC(=O)[C@@H](N)Cc1cccc2ccccc12)C(=O)N[C@@H](CCCNC(=N)N)C(=O)N1CCC[C@H]1C(=O)O (stereo in doubt) [Peptide N4] | 18.84 | 60.67 | 99.47 | 10.8 | retained their original antimicrobial capacity | 4 (≈ 5.49 µg/mL) | 4 (≈ 5.49 µg/mL) | 8 (≈ 11 µg/mL) | 8 (≈ 11 µg/mL) | 4 (≈ 5.49 µg/mL) | 1.83 | 4 (≈ 5.49 µg/mL) | 92.06 | 108.41 | 8 (≈ 11 µg/mL) | 8 (≈ 11 µg/mL)
